The values that follow come from EP0219616A1, “N,N'-dimethyl-N,N'-4,10-dioxa-3,11-dioxo-1,13-tridecylene-bis-tetrahydropapaverinium dichloride” (S O "PHARMACHIM", priority 1985, dated 1987).

Each structure is given as a SMILES string. Read-outs that look alike come from different tables or passages of the source.

The conditions of data set [1]: pH 2,5; literature reference (4); cited from earlier work.
Data set [2] in a line: Comparative stability in aqueous acidic medium, content by HPLC. It is filed as physicochemical. How it is done:
[…] Die Prüfung wurde bei unterschiedlichen pH-Werten in dem angegebenen Intervall durch Behandlung der wässrigen Lösungen des Dichlormethylats der Formel I und des Bezylats bei einer Temperatur von 53°C während 40 Stunden durchgeführt.
Chromatografische Bedingungen: Säule mit umgekehrter Phase C18, bewegliche Phase: wässrige 0,1 M Kaliumhydrogenphosphat, enthaltend Natriumoktylhydrogensulfat (1 g/I) und Azetonitril in einem Verhältnis 1:1. Durchlaßgeschwindigkeit 1,5 ml/Min.
Es werden je 7 Proben einer 0,5%-igen wässrigen Lösung des Dichlorids I und des Dibezylats mit bestimmten pH-Werten zubereitet, was durch Zufügen von Ortophospharsäure ereicht wird. Die Proben verweilen 40 Stunden bei einer Temperatur von 53°C. Danach wird der Prozentgehalt an Dichlorid und Dibezylat in den Proben gemessen.

The next data set concerns Neuromuskel-Übertragung. Kind of data set: Sciatic nerve-gastrocnemius preparation in cats: muscle contraction on nerve stimulation (neuromuscular block). The data set is classed as in vivo, Katzen. As to conditions: for Eintreten der Neuro-muskel-Blockierung / Wiederherstellung der Neuromuskel-Übertragung: dose 0,2 mg/kg. The source says:
Die Versuche wurden an Katzen unter Einführen von gleichen Dosen des Originalpräparats "Tracrium" und der Verbindung der Formel I. Es wurde das klassische Verfahren "I-schiadiensgastrocnemicus" benutzt. Es wurde eine Kontraktion des Muskels Gastrocnemicus zufolge einer Reizung des Hüftnervs (Ischiasnervs) registriert. Die Ergebnisse sind in Tabelle II dargestellt.

The nature of data set [3]: Solubility compared with known salts (no method given). The data set is classed as physicochemical.

Take `COc1ccc(CC2c3cc(OC)c(OC)cc3CC[N+]2(C)CCC(=O)OCCCCCOC(=O)CC[N+]2(C)CCc3cc(OC)c(OC)cc3C2Cc2ccc(OC)c(OC)c2)cc1OC` (stereo not shown) [Dibezylat, Dibesylat des N,N-4,10-Dioxa-3,11-Dioxotridezylen-1,13-bis-tetrahydropapaverins, reference compound]: the “Prozentgehalt des Bezylats bei maximaler Stabilität” value in data set [1] is reported as 76%. In addition, the remaining at 40 h in data set [2] (acidic aqueous solution, pH 3, at pH 3,50, 53°C, read-out: Prozentgehalt, Maximum) worked out at 73.8%; in data set [2] (aqueous solution, phosphoric acid, pH 1, pH 1,76, 0,5% aqueous solution, 53°C, read-out: Prozent-gehalt), 60.6%; in data set [2] (aqueous solution, phosphoric acid, pH 2, pH 2,88, 0,5% aqueous solution, 53°C, read-out: Prozent-gehalt), 72.9%; in data set [2] (aqueous solution, phosphoric acid, pH 3, pH 3,16, 0,5% aqueous solution, 53°C, read-out: Prozent-gehalt) it was 73.5%; in data set [2] (aqueous solution, phosphoric acid, pH 3, pH 3,50, 0,5% aqueous solution, 53°C, read-out: Prozent-gehalt), 73.8%; in data set [2] (aqueous solution, phosphoric acid, pH 3, pH 3,71, 0,5% aqueous solution, 53°C, read-out: Prozent-gehalt), 72.2%. Besides, the remaining at 40 h in data set [2] (aqueous solution, phosphoric acid, pH 4, pH 4,09, 0,5% aqueous solution, 53°C, read-out: Prozent-gehalt) was determined as 68.8%. Moreover, the “Prozentgehalt niedriger im Vergleich zur Verbindung der Formel I” value in data set [2] (pH interval 2,46 bis 3,77, 53°C, 40 h) is recorded as about 20%.
On to `COc1ccc(CC2c3cc(OC)c(OC)cc3CC[N+]2(C)CCC(=O)OCCCCCOC(=O)CC[N+]2(C)CCc3cc(OC)c(OC)cc3C2Cc2ccc(OC)c(OC)c2)cc1OC` (stereo not shown) [Tracrium, Dibesylat des N,N-4,10-Dioxa-3,11-Dioxotridezylen-1,13-bis-tetrahydropapaverins, reference compound], for which, in the data set with Neuromuskel-Übertragung (cats), the “Eintreten der Neuro-muskel-Blockierung” value is 60,4 Sek and the “Wiederherstellung der Neuromuskel-Übertragung” value is on record as 34,6 Min.
Consider `COc1ccc(CC2c3cc(OC)c(OC)cc3CC[N+]2(C)CCC(=O)OCCCCCOC(=O)CC[N+]2(C)CCc3cc(OC)c(OC)cc3C2Cc2ccc(OC)c(OC)c2)cc1OC` (stereo not shown) [Dichlormethylat der Formel I, N,N-Dimethyl-N,N-4,10-dioxa-3,11-dioxotridezylen-1,13-tetrachydropapaverinoil-dichlorid], for which, in the data set with Neuromuskel-Übertragung (cats), the “Eintreten der Neuro-muskel-Blockierung” value is 60,3 Sek. The “Wiederherstellung der Neuromuskel-Übertragung” value in the data set on Neuromuskel-Übertragung (cats) is reported as 29,8 Min. The “Eintreten, Wiederherstellung und Dauer des Effekts der Neuromuskelübertragung im Vergleich zu "Tracrium"” value in the data set on Neuromuskel-Übertragung (cats, equal doses) was “keinen statistisch wesentlichen Unterschied”. Also, in the data set with Neuromuskel-Übertragung (same effect with smaller quantity of active substance), the “biologischer Effekt bei den pharmakologischen Prüfungen” value is recorded as “verbesserten biologischen Effekt”. Besides, in data set [3], the “Löslichkeit im Vergleich zu dem bekannten Dijodid und den anderen Salzen derselben Gruppe” value is “bessere Löslichkeit”. The remaining at 40 h in data set [2] (acidic aqueous solution, pH 3, at pH 3,0 -3,27, 53°C, read-out: Prozentgehalt, Maximum) was 91.9%; in data set [2] (acidic aqueous solution, pH interval 2,46 bis 3,77, 53°C, read-out: Prozentgehalt), 86 to 91.9%; in data set [2] (aqueous solution, phosphoric acid, pH 2, pH 2,46, 0,5% aqueous solution, 53°C, read-out: Prozent-gehalt), 88.1%; in data set [2] (aqueous solution, phosphoric acid, pH 2, pH 2,75, 0,5% aqueous solution, 53°C, read-out: Prozent-gehalt) it was 89.5%; in data set [2] (aqueous solution, phosphoric acid, pH 3, pH 3,04, 0,5% aqueous solution, 53°C, read-out: Prozent-gehalt), 91.9%; in data set [2] (aqueous solution, phosphoric acid, pH 3, pH 3,27, 0,5% aqueous solution, 53°C, read-out: Prozent-gehalt), 91.4%. Besides, the remaining at 40 h in data set [2] (aqueous solution, phosphoric acid, pH 3, pH 3,58, 0,5% aqueous solution, 53°C, read-out: Prozent-gehalt) was 87.6%. The “Stabilität im Vergleich zum Bezylat” value in data set [2] (aqueous acidic medium, pH 1,7 bis 4,0, 53°C, 40 h) is “wesentlich stabiler”. Besides, the Prozent-gehalt in data set [2] (pH 4,09, 0,5% aqueous solution, 53°C, 40 h, listed as Dichlor-methyl der Formel I, 2400 min) is on record as 70,4%.
